Experimental data published in patent US10208033B2, “β-carboline, dihydro-β-carboline and tetrahydro-β-carboline alkaloid derivatives and preparation methods same and use in aspects of preventing and treating plant viruses, fungicides and insecticides” (NANKAI UNIVERSITY, priority 2013, dated 2019).

Experiments:
[1] = tested on: tobacco mosaic virus (TMV); experiment: Anti-TMV in vitro effect (half-leaf soaking); type: cell-based, tobacco mosaic virus (host Nicotiana tabacum L.cv.Xanthi NN); conditions: Tobacco mosaic virus, read-out: Relative inhibition rate (%) In vitro activity; for inhibition at 100 µg/mL: treatment dose 100 μg/mL; for inhibition at 500 µg/mL: treatment dose 500 μg/mL
[2] = tested on: tobacco mosaic virus (TMV); experiment: Anti-TMV in vivo inactivation; parameters: species or system tobacco mosaic virus (host Nicotiana tabacum L.cv.Xanthi NN); conditions: Tobacco mosaic virus, read-out: Relative inhibition rate (%) In vivo inactivation; for inhibition at 100 µg/mL: treatment dose 100 μg/mL; for inhibition at 500 µg/mL: treatment dose 500 μg/mL
[3] = tested on: tobacco mosaic virus (TMV); experiment: Anti-TMV in vivo therapeutic effect; parameters: species or system tobacco mosaic virus (host Nicotiana tabacum L.cv.Xanthi NN); conditions: Tobacco mosaic virus, read-out: Relative inhibition rate (%) In vivo therapy; for inhibition at 100 µg/mL: treatment dose 100 μg/mL; for inhibition at 500 µg/mL: treatment dose 500 μg/mL
[4] = tested on: tobacco mosaic virus (TMV); experiment: Anti-TMV in vivo protective effect; parameters: species or system tobacco mosaic virus (host Nicotiana tabacum L.cv.Xanthi NN); conditions: Tobacco mosaic virus, read-out: Relative inhibition rate (%) In vivo protection; for inhibition at 100 µg/mL: treatment dose 100 μg/mL; for inhibition at 500 µg/mL: treatment dose 500 μg/mL
[5] = tested on: cucumber fusarium wilt; experiment: Fungicidal (bactericidal) activity in vitro, PDA colony diameter; type: cell-based; conditions: Fusarium, 96 h; 50 mg/kg
[6] = tested on: Cercospora arachidicola; experiment: as above; type: cell-based; conditions: Mycosphaerella arachidis, 96 h; 50 mg/kg
[7] = tested on: Macrophoma kawatsukai; experiment: as above; type: cell-based; conditions: 50 mg/kg
[8] = tested on: Alternaria solani; experiment: as above; type: cell-based; conditions: Alternaria solani, 96 h; 50 mg/kg
[9] = tested on: Fusarium graminearumt; experiment: microbe, parasite or virus in culture; type: cell-based; conditions: Fusarium, 96 h, read-out: Bactericidal activity (%) Fusarium graminearumt
[10] = tested on: potato late blight; experiment: microbe, parasite or virus in culture; type: cell-based; conditions: Phytophthora infestans, 96 h, read-out: Bactericidal activity (%) potato late blight
[11] = tested on: Sclerotinia scleotiorum; experiment: Fungicidal (bactericidal) activity in vitro, PDA colony diameter; type: cell-based; conditions: Sclerotinia, 96 h; 50 mg/kg
[12] = tested on: Botrytis cinerea; experiment: as above; type: cell-based; conditions: Botrytis cinerea, 96 h; 50 mg/kg
[13] = tested on: Rhizoctonia solani; experiment: as above; type: cell-based; conditions: Rhizoctonia solani, 96 h; 50 mg/kg
[14] = tested on: Phytophthora capsici; experiment: as above; type: cell-based; conditions: Phytophthora capsici, 96 h; 50 mg/kg
[15] = tested on: Fusarium fujikuroi; experiment: as above; type: cell-based; conditions: Fusarium fujikuroi, 96 h; 50 mg/kg
[16] = tested on: Rhizoctonia cereali; experiment: as above; type: cell-based; conditions: Rhizoctonia, 96 h; 50 mg/kg
[17] = tested on: Bipolaria maydis; experiment: organism not typed; type: cell-based; conditions: read-out: Bactericidal activity (%) Bipolaria maydis
[18] = tested on: Colletotrichum orbiculare; experiment: Fungicidal (bactericidal) activity in vitro, PDA colony diameter; type: cell-based; conditions: Colletotrichum orbiculare, 96 h; 50 mg/kg
[19] = tested on: armyworms; type: in vivo; conditions: concentration 600 mg/kg
[20] = tested on: cotton bollworms; experiment: whole plant or invertebrate; conditions: Helicoverpa armigera, in Gossypium hirsutum, read-out: Cotton bollworm Mortality (%)
Method: Experimental method of cotton bollworms: feed and drug mixing method: measure 3 mL of prepared solution and add it to about 27 g of newly prepared feed, thereby obtaining needed concentration through dilution by 10 times.

[21] = tested on: mosquito larvae; experiment: whole plant or invertebrate; conditions: Culex pipiens, 24 h, read-out: Mosquito larvae Mortality (%)
Outline: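 Compound dissolved in acetone (or other solvent) to a 1000 ppm stock and diluted in water to 5 ppm. Ten Culex pipiens pallens larvae at the start of the fourth instar, laboratory-reared, added per beaker; solvent-only aqueous control.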

[22] = tested on: corn borers; experiment: whole plant or invertebrate; conditions: read-out: Corn borer Mortality (%)

| Compound | inhibition at 100 µg/mL [1] | inhibition at 500 µg/mL [1] | inhibition at 100 µg/mL [2] | inhibition at 500 µg/mL [2] | inhibition at 100 µg/mL [3] | inhibition at 500 µg/mL [3] | inhibition at 100 µg/mL [4] | inhibition at 500 µg/mL [4] | inhibition of growth at 50 mg/kg [5] | inhibition of growth at 50 mg/kg [6] | inhibition at 50 mg/kg [7] | inhibition of growth at 50 mg/kg [8] | inhibition of growth at 50 mg/kg [9] | inhibition of growth at 50 mg/kg [10] | inhibition of growth at 50 mg/kg [11] | inhibition of growth at 50 mg/kg [12] | inhibition of growth at 50 mg/kg [13] | inhibition of growth at 50 mg/kg [14] | inhibition of growth at 50 mg/kg [15] | inhibition of growth at 50 mg/kg [16] | other results |
| --- | --- | --- | --- | --- | --- | --- | --- | --- | --- | --- | --- | --- | --- | --- | --- | --- | --- | --- | --- | --- | --- |
| C[C@@H]1N[C@H](C(=O)NC2CCCCC2)Cc2c1[nH]c1ccccc21 [Ib-17, (1S, 3S)—N-cyclohexyl-1-methyl-2,3,4,9-tetrahydro-pyridino [3,4-b] indol-3-formamide] | 0% | 38.8% | 12.3% | 43.3% | 15.1% | 44.6% | 14.2% | 37.1% | 34.6% | 69.2% | 47.6% | 52.6% | 59.5% | 31.8% | 33.3% | 27.3% | 50% | 37.5% | 28.6% | 71.1% | inhibition at 50 mg/kg [17]: 45.5%; inhibition of growth at 50 mg/kg [18]: 50%; Armyworm Mortality (%) [19]: 45%; mortality at 600 mg/kg [20]: 30%; mortality at 5 mg/kg [21]: 10%; mortality at 10 mg/kg [21]: 100%; mortality at 600 mg/kg [22]: 40% |
| Cc1nc(C(=O)O)cc2c1[nH]c1ccccc12 [Ia-11, 1-methyl-pyridino [3,4-b] indol-3-formic acid] | 0% | 32.5% | 0% | 27.3% | 0% | 29.6% | 0% | 21.4% | 19.1% | 50% | 82.4% | 33.3% | 35.7% | 25% | 72% | 63.6% | 42.9% | 60.6% | 35.7% | 53.1% | inhibition at 50 mg/kg [17]: 21.1%; inhibition of growth at 50 mg/kg [18]: 38.1%; Armyworm Mortality (%) [19]: 10%; mortality at 600 mg/kg [20]: 10%; mortality at 10 mg/kg [21]: 50%; mortality at 600 mg/kg [22]: 10% |
| O=C(O)[C@@H]1Cc2c([nH]c3ccccc23)[C@H](c2ccccc2)N1 [Ib-5, (1S, 3S)-1-phenyl-2,3,4,9-tetrahydropyridino [3,4-b] indol-3-formic acid] | 0% | 19.7% | 0% | 27.6% | 0% | 24.3% | 0% | 32.3% | 19.2% | 69.2% | 11.9% | 15.8% | 26.2% | 22.7% | 9.8% | 21.2% | 36.8% | 12.5% | 42.9% | 44.7% | inhibition at 50 mg/kg [17]: 22.7%; inhibition of growth at 50 mg/kg [18]: 35.7%; Armyworm Mortality (%) [19]: 50%; mortality at 600 mg/kg [20]: 30%; mortality at 5 mg/kg [21]: 30%; mortality at 10 mg/kg [21]: 100%; mortality at 600 mg/kg [22]: 35% |
| Cc1nccc2c1[nH]c1cc(OC(=O)[C@@H](NC(=O)OCc3ccccc3)C(C)C)ccc12 [Ia-9] | 0% | 20.7% | 0% | 13.6% | 0% | 12.5% | 0% | 19.6% | 38.5% | 61.5% | 78.6% | 36.8% | 35.7% | 45.5% | 13.7% | 51.5% | 52.6% | 50% | 21.4% | 84.2% | inhibition at 50 mg/kg [17]: 36.4%; inhibition of growth at 50 mg/kg [18]: 50%; Armyworm Mortality (%) [19]: 5%; mortality at 600 mg/kg [20]: 20%; mortality at 10 mg/kg [21]: 25%; mortality at 600 mg/kg [22]: 5% |
| C[C@@H]1N[C@H](C(=O)O)Cc2c1[nH]c1ccccc21 [Ib-1, (1S, 3S)-1-methyl-2,3,4,9-tetrahydropyridino [3,4-b] indol-3-formic acid] | 18.9% | 41.6% | 13.5% | 35.5% | 15.8% | 40.4% | 20% | 41.3% | 19.2% | 30.8% | 23.8% | 21.1% | 26.2% | 27.3% | 7.8% | 21.2% | 26.3% | 18.8% | 21.4% | 42.1% | inhibition at 50 mg/kg [17]: 22.7%; inhibition of growth at 50 mg/kg [18]: 35.7%; Armyworm Mortality (%) [19]: 25%; mortality at 600 mg/kg [20]: 25%; mortality at 10 mg/kg [21]: 55%; mortality at 600 mg/kg [22]: 25% |
